Laboratory results published in patent US7416728B2, “Growth blocking agents” (Kyto Biopharma, Inc., priority 1992, dated 2008).

Tests used:
[1] = tested on: Acute leukemia; settings: drug combined with vitamin B12 depletion (nitrous oxide); acute leukemia/rats; cited from earlier work
[2] = tested on: Myelocytic leukemia; settings: drug combined with vitamin B12 depletion (nitrous oxide); myelocytic leukemia/rats; cited from earlier work
[3] = tested on: Raji Burkitt lymphoma cells; assay: Subcutaneous Raji Burkitt lymphoma in nu/nu mice, tumor size; type: in vivo
Protocol: Nu/nu mice are injected subcutaneously with 1 million Raji Burkitt lymphoma cells. After two weeks, barely palpable nodules are present at the injection site. Measurements are made in three dimensions with a planarimeter and equally sized tumors assigned to experimental groups of 10 mice. […] Therapy is administered once weekly. Controls of antibody and drug alone, as well as vehicle controls, are included. Mice are monitored visually for toxicity, death, and tumor size weekly for 8 weeks, at which time the experiment is terminated, the mice sacrificed, and the tumors removed and weighed.

[4] = tested on: Raji Burkitt lymphoma cells; assay: Cell viability by reduction of tetrazolium dye, three days, with and without methotrexate; type: cell-based, human; settings: 100% lysis control = .047
Protocol: Antibody D2/20 at a range of concentrations is incubated with Raji Burkitt lymphoma cells in microtiter plates for three days with and without chemotherapeutic drugs. Cell viability is measured by reduction of tetrazolium dye. Only viable cells metabolize the dye to an insoluble, colored product which is subsequently solubilized and read in a spectrophotometer.

Compound: O=c1[nH]cc(F)c(=O)[nH]1 [Clone 5-FU, 5-fluorouracil]
- Therapeutic Results [1]: additive
- Therapeutic Results [2]: additive

Compound: CN(Cc1cnc2nc(N)nc(N)c2n1)c1ccc(C(=O)N[C@@H](CCC(=O)O)C(=O)O)cc1 [Methotrexate, methotrexate]
- average of serial tumor measurements converted to weight ([3]; week 1, methotrexate 5 Milligrams/M^2 i.v. once weekly): .07 grams
- average of serial tumor measurements converted to weight ([3]; week 1, methotrexate 10 Milligrams/M^2 i.v. once weekly): .05 grams
- average of serial tumor measurements converted to weight ([3]; week 1, methotrexate 50 Milligrams/M^2 i.v. once weekly): .04 grams
- average of serial tumor measurements converted to weight ([3]; week 2, methotrexate 5 Milligrams/M^2 i.v. once weekly): .14 grams
- average of serial tumor measurements converted to weight ([3]; week 2, methotrexate 10 Milligrams/M^2 i.v. once weekly): .12 grams
- average of serial tumor measurements converted to weight ([3]; week 2, methotrexate 50 Milligrams/M^2 i.v. once weekly): .10 grams
- average of serial tumor measurements converted to weight ([3]; week 3, methotrexate 5 Milligrams/M^2 i.v. once weekly): .43 grams
- average of serial tumor measurements converted to weight ([3]; week 3, methotrexate 10 Milligrams/M^2 i.v. once weekly): .30 grams
- average of serial tumor measurements converted to weight ([3]; week 3, methotrexate 50 Milligrams/M^2 i.v. once weekly): .25 grams
- average of serial tumor measurements converted to weight ([3]; week 4, methotrexate 5 Milligrams/M^2 i.v. once weekly): .70 grams
- average of serial tumor measurements converted to weight ([3]; week 4, methotrexate 10 Milligrams/M^2 i.v. once weekly): .53 grams
- average of serial tumor measurements converted to weight ([3]; week 4, methotrexate 50 Milligrams/M^2 i.v. once weekly): .41 grams
- average of serial tumor measurements converted to weight ([3]; week 5, methotrexate 5 Milligrams/M^2 i.v. once weekly): 1.2 grams
- average of serial tumor measurements converted to weight ([3]; week 5, methotrexate 10 Milligrams/M^2 i.v. once weekly): .92 grams
- average of serial tumor measurements converted to weight ([3]; week 5, methotrexate 50 Milligrams/M^2 i.v. once weekly): .73 grams
- average of serial tumor measurements converted to weight ([3]; week 6, methotrexate 5 Milligrams/M^2 i.v. once weekly): 2.6 grams
- average of serial tumor measurements converted to weight ([3]; week 6, methotrexate 10 Milligrams/M^2 i.v. once weekly): 2.1 grams
- average of serial tumor measurements converted to weight ([3]; week 6, methotrexate 50 Milligrams/M^2 i.v. once weekly): 1.4 grams
- average of serial tumor measurements converted to weight ([3]; week 7, methotrexate 5 Milligrams/M^2 i.v. once weekly): 4.8 grams
- average of serial tumor measurements converted to weight ([3]; week 7, methotrexate 10 Milligrams/M^2 i.v. once weekly): 4.8 grams
- average of serial tumor measurements converted to weight ([3]; week 7, methotrexate 50 Milligrams/M^2 i.v. once weekly): 2.3 grams
- average of serial tumor measurements converted to weight ([3]; week 8, methotrexate 5 Milligrams/M^2 i.v. once weekly): 7.2 grams
- average of serial tumor measurements converted to weight ([3]; week 8, methotrexate 10 Milligrams/M^2 i.v. once weekly): 6.9 grams
- average of serial tumor measurements converted to weight ([3]; week 8, methotrexate 50 Milligrams/M^2 i.v. once weekly): 3.4 grams
- Therapeutic Results [1]: synergistic
- cell viability, tetrazolium dye reading ([4]; antibody 0, methotrexate 0.1 micrograms/ml): .993
- cell viability, tetrazolium dye reading ([4]; antibody 0, methotrexate 1 micrograms/ml): .798
- Therapeutic Results [2]: synergistic

Compound: NC1(C(=O)O)CCCC1 [cycloleucine]
- Therapeutic Results [1]: synergistic
- Therapeutic Results [2]: additive
